Assay results taken from PMC9551036, “A selective and orally bioavailable VHL-recruiting PROTAC achieves SMARCA2 degradation in vivo” (Nature Communications, 2022).
“And” between values parts separate entries of the source, which are not always exact repeats. Equal entries are not always repeated. Where two headings read alike, the source gives them in different places.

Assay: Pharmacokinetic analyses in mouse
Assay type: in vivo
Conditions: for AUC(0-t): read-out: AUC0-24h; for Vd: read-out: Vss
Experimental: Compound concentrations in plasma aliquots were measured by quantitative HPLC-MS/MS using an internal standard. Calibration and quality control samples were prepared using blank plasma from untreated animals. Samples were precipitated with acetonitrile and injected into a HPLC system (Agilent 1200). Separation was performed by gradients of 5 mmol/L ammonium acetate pH 4.0 and acetonitrile with 0.1% formic acid on a 2.1 mm by 50 mm XBridge BEH C18 reversed-phase column with 2.5 µm particles (Waters). The HPLC was interfaced by ESI operated in positive ionisation mode to a triple quadrupole mass spectrometer (5000 or 6500+ Triple Quad System, SCIEX) operated in multiple reaction monitoring mode. Transitions were 532.4 to 432.8 m/z for BI01810284, 525.6 to 425.7 m/z for BI01802983 and 1021.6 to 624.2 m/z for BI01580883. Chromatograms were analyzed with Analyst (SCIEX) and pharmacokinetic parameters were calculated by non-compartmental analysis using BI-proprietary software.

[1] = 5 mg/kg i.v., individual animals
[2] = 30 mg/kg p.o., individual animals
[3] = NMRI, mouse, plasma, iv, 5 mg/kg, NMRI mice, i.v., 5 mg/kg, PK study
[4] = mouse, 5 mg/kg i.v., NCA, individual animals, 5 mg/kg
[5] = mouse, 30 mg/kg p.o., NCA, individual animals, 30 mg/kg

For `Cc1ncsc1-c1ccc([C@H](CCCCCN2CCC(c3ccc4c(c3)n(C3CCCC3)c3nc(=O)c5c(Br)cccc5n43)CC2)NC(=O)[C@@H]2C[C@@H](O)CN2C(=O)[C@@H](NC(=O)C2(F)CC2)C(C)(C)C)cc1` [compound 11], the AUC [1] was 40.7 µM·h and 36.8 µM·h, the AUCinf [1] was 40.9 µM·h and 37 µM·h and the Concentration (5 mg/kg i.v., time 0.25 h, individual animals) was 8050 nM. It also gave a Concentration (5 mg/kg i.v., time 1 h, individual animals) of 5350 nM, a Concentration (5 mg/kg i.v., time 6 h, individual animals) of 807 nM and a Concentration (5 mg/kg i.v., time 24 h, individual animals) of 37.6 nM. For the same molecule, the F (30 mg/kg p.o. vs 5 mg/kg i.v., individual animals) was 4.09% and 2.11% and 6.74%, the AUC [2] was 8.84 µM·h and 4.54 µM·h and 14.6 µM·h and the AUCinf [2] was 8.88 µM·h and 4.57 µM·h and 14.6 µM·h. For the same molecule, the MRT (NMRI, mouse, plasma, iv, 5 mg/kg, NMRI mice, PK study) was 2.9 h, the AUC(0-t) [3] was 36 µM·h and the AUC(0-inf) (NMRI, mouse, plasma, iv, 5 mg/kg, NMRI mice, i.v., 5 mg/kg, PK study, read-out: AUC0-inf) was 36 µM·h. For the same molecule, the clearance (NMRI, mouse, plasma, iv, 5 mg/kg, NMRI mice, i.v., 5 mg/kg, PK study, read-out: Clearance) was 2.2 mL/min/kg, the Vd [3] was 0.38 L/kg and the MRT (NMRI, mouse, plasma, po, 30 mg/kg, NMRI mice, PK study) was 5 h. The MRT (NMRI, mouse, plasma, po, 30 mg/kg, NMRI mice, Xenograft study) was 5.6 h, the AUC(0-t) (NMRI, mouse, plasma, po, 30 mg/kg, NMRI mice, p.o., 30 mg/kg, PK study) was 9.3 µM·h and the AUC(0-inf) (NMRI, mouse, plasma, po, 30 mg/kg, NMRI mice, p.o., 30 mg/kg, PK study, read-out: AUC0-inf) was 9.4 µM·h. The bioavailability (NMRI, mouse, plasma, po, 30 mg/kg, NMRI mice, p.o., 30 mg/kg, PK study, read-out: Bioavailability) was 4.3%, the AUC(0-t) (NMRI, mouse, plasma, po, 30 mg/kg, NMRI mice, p.o., 30 mg/kg, Xenograft study) was 21 µM·h and the AUC(0-inf) (NMRI, mouse, plasma, po, 30 mg/kg, NMRI mice, p.o., 30 mg/kg, Xenograft study, read-out: AUC0-inf) was 21 µM·h. It also gave an MRT (NMRI, mouse, plasma, po, 100 mg/kg, NMRI mice) of 5.1 h, an AUC(0-t) (NMRI, mouse, plasma, po, 100 mg/kg, NMRI mice, p.o., 100 mg/kg) of 38 µM·h and an AUC(0-inf) (NMRI, mouse, plasma, po, 100 mg/kg, NMRI mice, p.o., 100 mg/kg, read-out: AUC0-inf) of 39 µM·h. The Plasma concentration (mouse, 5 mg/kg i.v., 0.25 h, individual animals, 5 mg/kg) was 9710 nM and 10400 nM, the Plasma concentration (mouse, 5 mg/kg i.v., 1 h, individual animals, 5 mg/kg) was 5970 nM and 6930 nM and the Plasma concentration (mouse, 5 mg/kg i.v., 6 h, individual animals, 5 mg/kg) was 1490 nM and 870 nM. For the same molecule, the Plasma concentration (mouse, 5 mg/kg i.v., 24 h, individual animals, 5 mg/kg) was 42.1 nM and 41.5 nM, the AUC [4] was 40.7 µM·h and 36.8 µM·h and the AUCinf [4] was 40.9 µM·h and 37 µM·h. The CL [4] was 1.94 mL/min/kg and 2.14 mL/min/kg, the Vss [4] was 0.386 L/kg and 0.334 L/kg and the Plasma concentration (mouse, 30 mg/kg p.o., 0.333 h, individual animals, 30 mg/kg) was 172 nM and 94.6 nM and 199 nM. For the same molecule, the Plasma concentration (mouse, 30 mg/kg p.o., 1 h, individual animals, 30 mg/kg) was 438 nM and 509 nM, the Plasma concentration (mouse, 30 mg/kg p.o., 2 h, individual animals, 30 mg/kg) was 577 nM and 1020 nM and the Plasma concentration (mouse, 30 mg/kg p.o., 6 h, individual animals, 30 mg/kg) was 565 nM and 239 nM and 1040 nM. The Plasma concentration (mouse, 30 mg/kg p.o., 24 h, individual animals, 30 mg/kg) was 6.48 nM and 10.4 nM, the AUC [5] was 8.84 µM·h and 4.54 µM·h and 14.6 µM·h and the AUCinf [5] was 8.88 µM·h and 4.57 µM·h and 14.6 µM·h. For the same molecule, the F [5] was 4.09% and 2.11% and 6.74%, the concentration at 0.25 h (mouse, plasma, intravenous, 5 mg/kg, 5 mg/kg i.v., time 0.25 h, individual animals, read-out: Concentration) was 9710 nM and the concentration at 1 h (mouse, plasma, intravenous, 5 mg/kg, 5 mg/kg i.v., time 1 h, individual animals, read-out: Concentration) was 5970 nM. The concentration at 6 h (mouse, plasma, intravenous, 5 mg/kg, 5 mg/kg i.v., time 6 h, individual animals, read-out: Concentration) was 1490 nM, the concentration at 24 h (mouse, plasma, intravenous, 5 mg/kg, 5 mg/kg i.v., time 24 h, individual animals, read-out: Concentration) was 42.1 nM and the AUC (mouse, plasma, iv, 5 mg/kg, 5 mg/kg i.v., individual animals, read-out: AUC) was 30.4 µM·h. The AUC(0-inf) (mouse, plasma, iv, 5 mg/kg, 5 mg/kg i.v., individual animals, read-out: AUCinf) was 30.6 µM·h, the concentration at 0.25 h (mouse, plasma, iv, 5 mg/kg, mouse, 5 mg/kg i.v., 0.25 h, individual animals, read-out: Plasma concentration) was 8050 nM and the concentration at 1 h (mouse, plasma, iv, 5 mg/kg, mouse, 5 mg/kg i.v., 1 h, individual animals, read-out: Plasma concentration) was 5350 nM. The concentration at 6 h (mouse, plasma, iv, 5 mg/kg, mouse, 5 mg/kg i.v., 6 h, individual animals, read-out: Plasma concentration) was 807 nM, the concentration at 24 h (mouse, plasma, iv, 5 mg/kg, mouse, 5 mg/kg i.v., 24 h, individual animals, read-out: Plasma concentration) was 37.6 nM and the AUC (mouse, plasma, iv, 5 mg/kg, mouse, 5 mg/kg i.v., NCA, individual animals, read-out: AUC) was 30.4 µM·h. For the same molecule, the AUC(0-inf) (mouse, plasma, iv, 5 mg/kg, mouse, 5 mg/kg i.v., NCA, individual animals, read-out: AUCinf) was 30.6 µM·h, the clearance (mouse, plasma, iv, 5 mg/kg, mouse, 5 mg/kg i.v., NCA, individual animals, read-out: CL) was 2.59 mL/min/kg and the Vd (mouse, plasma, iv, 5 mg/kg, mouse, 5 mg/kg i.v., NCA, individual animals) was 0.435 L/kg. For the same molecule, the Vd (mouse, plasma, iv, 5 mg/kg, mouse, 5 mg/kg i.v.) was 0.385 L/kg, the clearance (mouse, plasma, iv, 5 mg/kg, mouse, 5 mg/kg i.v., read-out: clearance) was 2.2 mL/min/kg and the concentration at 1 h (mouse, plasma, oral, 30 mg/kg, 30 mg/kg p.o., time 1 h, individual animals, read-out: Concentration) was 337 nM. It also gave a concentration at 2 h (mouse, plasma, oral, 30 mg/kg, 30 mg/kg p.o., time 2 h, individual animals, read-out: Concentration) of 874 nM, a concentration at 24 h (mouse, plasma, oral, 30 mg/kg, 30 mg/kg p.o., time 24 h, individual animals, read-out: Concentration) of 8.75 nM and a bioavailability (mouse, plasma, oral, 30 mg/kg, mouse, 30 mg/kg p.o. vs 5 mg/kg i.v., read-out: F% p.o. (oral bioavailability)) of 3%. For the same molecule, the concentration at 1 h (mouse, plasma, po, 30 mg/kg, mouse, 30 mg/kg p.o., 1 h, individual animals, read-out: Plasma concentration) was 337 nM, the concentration at 2 h (mouse, plasma, po, 30 mg/kg, mouse, 30 mg/kg p.o., 2 h, individual animals, read-out: Plasma concentration) was 874 nM and the concentration at 24 h (mouse, plasma, po, 30 mg/kg, mouse, 30 mg/kg p.o., 24 h, individual animals, read-out: Plasma concentration) was 8.75 nM.
